The test system of one test is Pneumocystis carinii. Nature of the test: inhibitory concentration against Pneumocystis carinii. The format is functional, organism-based.
A further test has as its system A549. Nature of the test: Cytotoxicity against A549 cell line. The note with it: Homo sapiens. The format is functional, cell-based.

Broadly, the IC50 is the concentration needed to halve the response being measured.

Take `N=C(N)c1ccc(OCc2ccccc2COc2ccc(C(=N)N)cc2)cc1`: the figures for the IC50 in the test on Pneumocystis carinii and in the test with A549 were 1400 nM and 33100 nM, respectively.

`N=C(N)c1ccc(NC(=O)CCCC(=O)Nc2ccc(C(=N)N)cc2)cc1`: the IC50 was 3 nM with Pneumocystis carinii and greater than 300 nM in the test on A549.

For `N=C(N)c1ccc(COc2ccccc2OCc2ccc(C(=N)N)cc2)cc1`, the concentration for half-maximal inhibition (IC50) in the test on Pneumocystis carinii was 1300 nM; in the test on A549, 44100 nM.

In the case of `N=C(N)c1ccc(NC(=O)CCCCC(=O)Nc2ccc(C(=N)N)cc2)cc1`, the results for the IC50 in the test on Pneumocystis carinii and in the test with A549 were 2 nM and greater than 200 nM, respectively.

`N=C(N)c1ccc(OCc2ccc(COc3ccc(C(=N)N)cc3)cc2)cc1`: the half-maximal inhibitory concentration (IC50) in the test with Pneumocystis carinii was 1300 nM; with A549, 30200 nM.

Turning to `N=C(N)c1ccc(OC(=O)c2ccc(C(=O)Oc3ccc(C(=N)N)cc3)cc2)cc1` [BIS(4-CARBAMIMIDOYLPHENYL)TEREPHTHALATE], the concentration for half-maximal inhibition (IC50) with Pneumocystis carinii came to 13400 nM; in the test with A549, 121000 nM.

As for `N=C(N)c1ccc(OCCCCCOc2ccc(C(=N)N)cc2)cc1` [PENTAMIDINE], the IC50 in the test with Pneumocystis carinii came to 500 nM; with A549, 24000 nM.

The values are drawn from ChEMBL document CHEMBL1137033, “Novel bisbenzamidines as potential drug candidates for the treatment of Pneumocystis carinii pneumonia” (Bioorg Med Chem Lett, 2004).
